Experimental data as given in ChEMBL document CHEMBL1201862, “PubChem BioAssay data set” (2004).
Activity calls are given as the source filed them.

What was measured:
[1] = molecular target: T1, High affinity choline transporter 1 (Homo sapiens, UniProt Q9GZV3); experiment: CHT inhibitors, dose response, cell-based, 5-point CRC, membrane potential dye (AID 504840); type: functional
T1 sequence (Q9GZV3 whole entry): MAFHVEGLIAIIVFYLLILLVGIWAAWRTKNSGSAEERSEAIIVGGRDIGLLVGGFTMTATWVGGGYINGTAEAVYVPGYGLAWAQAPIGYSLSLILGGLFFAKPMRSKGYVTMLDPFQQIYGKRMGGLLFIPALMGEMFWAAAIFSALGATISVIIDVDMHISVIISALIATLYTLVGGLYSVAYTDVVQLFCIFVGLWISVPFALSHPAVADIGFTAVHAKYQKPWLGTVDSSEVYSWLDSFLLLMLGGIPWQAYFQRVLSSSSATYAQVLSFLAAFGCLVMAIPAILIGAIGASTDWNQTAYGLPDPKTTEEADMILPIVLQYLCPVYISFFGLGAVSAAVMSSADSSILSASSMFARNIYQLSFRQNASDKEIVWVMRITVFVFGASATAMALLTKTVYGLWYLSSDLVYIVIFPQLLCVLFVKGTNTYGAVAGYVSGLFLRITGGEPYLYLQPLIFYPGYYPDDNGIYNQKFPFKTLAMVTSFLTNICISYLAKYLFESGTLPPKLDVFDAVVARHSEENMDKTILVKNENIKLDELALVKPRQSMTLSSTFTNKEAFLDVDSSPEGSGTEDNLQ

[2] = molecular target: T1, High affinity choline transporter 1; experiment: CHT inhibitors, dose response, cell-based, 10-point CRC, membrane potential dye (AID 588401); type: functional;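 also: membrane potential dye fluorescence of choline-evoked depolarization via CHT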
[3] = THP-1 cell cytotoxicity, cytotoxicity control, set 4 (AID 504911); type: functional; conditions: Mycobacterium tuberculosis
[4] = cytotoxicity toward NIH3T3 fibroblasts, dose response, counter-screen, cell-based, ATP luminescence, mouse fibroblasts (AID 2010); type: functional;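 also: cells exposed to compound for about 90 hours before reading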
[5] = system: Streptococcus sp. 'group A'; experiment: growth inhibition of control SK(-) GAS strain, dose response, counter-screen for streptokinase expression inhibitor project, luminescence, kanamycin, BacTiterGlo, confirmation (AID 1900); type: functional, organism-based
[6] = Vero cell cytotoxicity, dose response, cytotoxicity control for M. tuberculosis growth inhibitor project, Vero cells, purified and synthesized compounds, set 5 (AID 504909); type: functional; conditions: Mycobacterium tuberculosis
[7] = THP-1 cell cytotoxicity, dose response, cytotoxicity control for non-replicating M. tuberculosis project (AID 489025); type: functional
[8] = Vero E6 cell cytotoxicity, dose response, cytotoxicity control for non-replicating M. tuberculosis project, secondary assay (AID 492998); type: functional, VeroE6; conditions: Vero C1008
[9] = inhibitors of intracellular T. cruzi replication, confirmation, NIH3T3 host cells, beta-gal luminescence (AID 2044); type: functional, cell-based;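 also: intracellular parasites grown in NIH/3T3 mouse fibroblasts as host cells; luminescent beta-galactosidase reporter signal from transgenic T. cruzi replicating inside host cells; inhibitors lower the luminescence signal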
[10] = molecular target: T2, Streptokinase A (Streptococcus pyogenes serotype M1, UniProt P10520); experiment: S. pyogenes streptokinase expression inhibitors, potency, dose response, plasminogen activation absorbance, OD405 (AID 1914); type: functional, Streptococcus pyogenes M1 GAS;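 also: secreted streptokinase activity via plasminogen activation per viability signal from cell pellet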
T2 sequence (P10520 whole entry): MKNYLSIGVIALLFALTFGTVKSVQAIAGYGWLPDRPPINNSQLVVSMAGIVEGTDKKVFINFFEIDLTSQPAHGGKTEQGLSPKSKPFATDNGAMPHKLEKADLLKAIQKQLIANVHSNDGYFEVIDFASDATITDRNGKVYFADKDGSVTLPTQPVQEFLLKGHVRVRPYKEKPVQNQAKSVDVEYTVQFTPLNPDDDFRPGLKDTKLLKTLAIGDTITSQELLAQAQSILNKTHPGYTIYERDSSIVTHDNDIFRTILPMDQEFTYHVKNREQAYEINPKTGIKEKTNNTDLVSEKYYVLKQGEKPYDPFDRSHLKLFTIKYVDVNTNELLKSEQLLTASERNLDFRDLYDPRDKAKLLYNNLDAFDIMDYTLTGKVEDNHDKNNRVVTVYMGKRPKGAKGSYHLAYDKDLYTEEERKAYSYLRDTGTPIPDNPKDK

[11] = A Cell Based Secondary Assay to Explore Cytotoxicity in THP-1 Cells of Compounds that Modulate Mycobacterium tuberculosis in Media Containing Glycerol versus Media without Glycerol (2).; type: functional
[12] = HepG2 cell cytotoxicity, dose response, cytotoxicity control for non-replicating M. tuberculosis project (AID 489018); type: functional; conditions: Mycobacterium tuberculosis
[13] = Vero cell cytotoxicity, cytotoxicity control for M. tuberculosis inhibitor project, purified and synthesized samples, set 3 (AID 504684); type: functional
[14] = THP-1 cell cytotoxicity, dose response, cytotoxicity control, set 3 (AID 504852); type: functional; conditions: Mycobacterium tuberculosis
[15] = cells; type: functional
[16] = Vero cell cytotoxicity, dose response, cytotoxicity control for M. tuberculosis growth inhibitor project, Vero cells, purified and synthesized compounds, set 4 (AID 504854); type: functional; conditions: Mycobacterium tuberculosis
[17] = A Cell Based Secondary Assay to Explore Cytotoxicity in HepG2 Cells of Compounds that Modulate Mycobacterium tuberculosis in Media Containing Glycerol versus Media without Glycerol (2).; type: functional
[18] = system: INS1; experiment: beta cell apoptosis inhibitors, cytokine rescue, dose response, luminescence, retest (AID 449756); type: functional, cell-based; conditions: Rattus norvegicus;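 also: cell death triggered by IL-1 beta plus TNF-alpha plus IFN-gamma mixture; protective hits raise ATP signal compared with cytokine alone wells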
[19] = inhibitors of SNCA 5'UTR-driven reporter translation, confirmation, H4 neuroglioma cells, luminescence (AID 1988); type: functional, cell-based
[20] = HepG2 cell cytotoxicity, cytotoxicity control, set 4 (AID 504910); type: functional; conditions: Mycobacterium tuberculosis
[21] = Luminescence Cell-Based Dose Response HTS to Identify Inhibitors of 5'UTR Stem-Loop Driven Prion Protein mRNA Translation in H4 Neuroglioblastoma Cells. [Related pubchem assays: 1827 (Project Summary), 1813 (Primary HTS)]; type: functional
[22] = inhibitors of firefly luciferase expression or activity, dose response, H4 neuroglioma cells, luminescence (AID 1990); type: functional, cell-based
[23] = microbe, parasite or virus in culture; type: functional; conditions: Mycobacterium tuberculosis
[24] = system: Streptococcus; experiment: Group A Streptococcus viability loss, dose response, counter-screen for streptokinase expression inhibitor project, luminescence, BacTiterGlo (AID 1915); type: functional, organism-based;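 also: potency for reduction of bacterial viability or growth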
[25] = HepG2 cell cytotoxicity, dose response, cytotoxicity control, set 3 (AID 504853); type: functional; conditions: Mycobacterium tuberculosis

Structure (SMILES): Cc1ccc[n+](CC(=O)c2ccc(Br)cc2)c1
- IC50 [1]: 77.5 nM (inconclusive)
- IC50 [2]: 713 nM (active)

Structure (SMILES): c1ccc(N=C2N=C(Nc3ccccn3)c3ccccc32)nc1
- CC50 [3]: > 76.9 µM (active)
- EC50 [4]: 17.7 µM (active)
- EC50 [5]: 5.41 µM (active)
- CC50 [6]: 60.5 µM (active)
- CC50 [7]: 148 nM (active)
- CC50 [8]: 500 nM (active)
- EC50 [9]: 687 nM (active)
- EC50 [10]: 22.2 µM (active)
- CC50 [11]: < 200 nM (active)
- CC50 [12]: < 39 nM (active)
- CC50 [13]: < 200 nM (active)
- CC50 [14]: > 71.4 µM (active)
- IC50 [15]: < 100 nM (active)
- CC50 [16]: > 100 µM (active)
- CC50 [17]: < 100 nM (active)
- AC50 [18]: 795 nM (active)
- EC50 [19]: 13.4 µM (active)
- CC50 [20]: > 41.3 µM (active)
- EC50 [21]: > 120 µM (not active)
- EC50 [22]: 10.5 µM (active)
- CC50 [23]: > 40 µM (active)
- EC50 [24]: > 150 µM (not active)
- CC50 [25]: 21.2 µM (active)
